Assay results: patent US9365540B2, “Benzimidazole derivatives as MCH receptor antagonists” (Takeda Pharmaceutical Company Limited, priority 2012, dated 2016)

Experiments:
[1] = system: male diet-induced obese F344/Jcl rats; assay: Anorectic effect in male diet-induced obese F344/Jcl rats; type: in vivo, rat; settings: Rattus norvegicus, po, 48 h, 5 mg/mL suspension at 2 mL/kg, two administrations, food intake for 2 days vs control group, read-out: Food intake suppression rate (%)
Protocol: Evaluation of Anorectic Effect Using Male Diet-Induced Obese F344/Jcl Rats
Male diet-induced obese F344/Jcl rats (44-50 weeks old) fed with a high-fat diet (D12451: Research Diets) from 5 weeks old were used. From before the start of experiment, the rats were singly housed, given a powder high-fat diet (D12451M: Research Diets), and habituated to oral administration with tap water. The food intake from the evening of the day before the start of experiment to the next morning was measured, and the rats were grouped based on both the food intake and the body weight of the previous day. In the evening of the day of the start of experiment and the next day, 0.5% methylcellulose solution was orally administered to the control group, and 0.5% methylcellulose suspension (5 mg/mL) of the test compound was orally administered to the compound administration group at 2 mL/kg (6 per group for both control group and compound administration group). The food intake for 2 days from the initial administration was measured. The food intake inhibition rate of each compound administration group to the control group was calculated.

human MCHR1 = target: T1, human MCHR1 (Homo sapiens, UniProt Q99705); assay: MCH receptor 1 antagonistic activity, Ca2+ mobilization assay; type: cell-based; settings: CHO, test compound 0.1 μM; human MCHR1-expressing CHO cells (clone #4); ligand MCH(4-19) 2 nM; read-out: Inhibitory rate % (0.1 μM)
T1 construct: expressed in transfected cells; host or cells: CHO dhfr- cells, clone #4
T1 sequence (Q99705 whole entry): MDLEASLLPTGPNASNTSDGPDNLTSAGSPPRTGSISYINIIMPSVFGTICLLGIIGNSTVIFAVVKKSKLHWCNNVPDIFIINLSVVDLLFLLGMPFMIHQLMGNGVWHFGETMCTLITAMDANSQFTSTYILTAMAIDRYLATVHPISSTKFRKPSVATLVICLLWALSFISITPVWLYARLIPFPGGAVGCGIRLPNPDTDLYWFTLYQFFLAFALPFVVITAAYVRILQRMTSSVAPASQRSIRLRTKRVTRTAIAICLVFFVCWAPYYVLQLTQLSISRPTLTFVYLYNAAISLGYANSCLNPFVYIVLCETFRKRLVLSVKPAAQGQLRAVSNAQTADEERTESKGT
How it was run: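 CHO dhfr− cells stably expressing human MCHR1 (clone #4) were used in a fluorometric Ca2+ mobilization assay. Test compounds were run at 0.1 μM, with antagonism expressed as percent inhibition.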

HepG2 cells = assay: PLsis (phospholipidosis) inducing potential, NBD-PE uptake; type: cell-based; settings: 24 hr exposure, relative value to 10 μM Amiodarone, maximum value per unit concentration
Protocol: Evaluation of PLsis Inducing Potential
DMEM medium, L-glutamine, penicillin-streptomycin, pyruvic acid, and N-(7-nitrobenz-2-oxa-1,3-diazol-4-yl)-1,2-hexadecanoyl-sn-glycero-3-phosphoethanolamine triethylammonium salt (NBD-PE) were purchased from Invitrogen Corporation. As bovine serum albumin (BSA), a product of Thermo Trace Ltd. (Melbourne, Australia) was used, and as Amiodarone, a product of ICN (Costa Mesa, Calif.) was used. A test compound was used in the form of a 10 mM DMSO solution.
FBS was added at a final concentration of 5 vol % to DMEM medium supplemented with L-glutamine, pyruvic acid and penicillin-streptomycin and subjected to the experiment. Culture was performed using 5% carbon dioxide gas-95% air as a gas phase in a CO2 incubator at 37° C. HepG2 cells were suspended in a culture medium at 50×10^4 cells/mL, plated in a 96 well plate at 50 μL/well and precultured for 24 hr. After preculture, the culture medium was removed, a culture medium containing 60 μM NBD-PE was added at 50 μL/well, and a culture medium containing 0.6 μM or 20 μM test compounds were each added at 50 μL/well to HepG2 cells, and the cells were cultured for 24 hr. As a positive control, Amiodarone was used at a final concentration of 10 μM.
After exposure to the test compound for 24 hr, the fluorescence intensity (Ex. 485 nm, Em. 538 nm) of NBD-PE uptaken by the cells was measured by a fluorometer. The measurement value with addition of 0 μM test compound solution was subtracted as a blank, a relative value to the measurement 5 value with addition of 10 μM Amiodarone was calculated, and the maximum value per unit concentration of the test compound was obtained as a phospholipidosis (PLsis) inducing potential.

[2] = target: T2, human MCH receptor 1 (MCHR1) (Homo sapiens, UniProt Q99705); assay: human MCH receptor 1 (MCHR1) competitive binding assay with [125I]-MCH(4-19); settings: test compound 0.1 μM, human MCHR1-expressing CHO cell membrane fraction, read-out: Binding inhibition rate % (0.1 μM)
T2 construct: expressed in transfected cells; host or cells: CHO cell clone 57 (membrane fraction)
T2 sequence (Q99705 whole entry): as above
How it was run: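 Membranes from CHO cells expressing human MCHR1 incubated with [125I]-MCH(4-19) and test compound in 20 mM Tris-HCl pH 7.5/5 mM EDTA with protease inhibitors, 1 hr at room temperature. Bound radioactivity collected on PEI-treated GF/C filters; % inhibition at 0.1 μM compound, nonspecific binding set with cold MCH(1-19).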

Structure (SMILES)	inhibition in vivo at 5000 µg/mL, 10 mg/kg [1] [%]	inhibition at 0.1 µM (human MCHR1) [%]	PLsis inducing potential (HepG2 cells)	inhibition at 0.1 µM [2] [%]
Cc1c(C2CC2)nc2ccc(-n3ccc(OCc4ccccc4)cc3=O)cn12 [Example 11, 4-(Benzyloxy)-1-(2-cyclopropyl-3-methylimidazo[1,2-a]pyridin-6-yl)pyridin-2(1H)-one]	21.8	101	2.0	81
Cn1c(C2CC2)nc2ccc(-n3ccc(OCc4ccc(Cl)s4)cc3=O)cc21 [Example 121, 4-((5-Chloro-2-thienyl)methoxy)-1-(2-cyclopropyl-1-methyl-1H-benzimidazol-6-yl)pyridin-2(1H)-one]	36.5	96	1.7	95
Cc1c(C2CC2)nc2ccc(-n3ccc(OCc4ccc(F)cc4)cc3=O)cn12 [Example 1, 1-(2-Cyclopropyl-3-methylimidazo[1,2-a]pyridin-6-yl)-4-((4-fluorobenzyl)oxy)pyridin-2(1H)-one]	19.5	98	2.5	91
Cn1c(C2CC2)nc2ccc(-n3ccc(OCc4ccc(Cl)cn4)cc3=O)cc21 [Example 112, 4-((5-Chloropyridin-2-yl)methoxy)-1-(2-cyclopropyl-1-methyl-1H-benzimidazol-6-yl)pyridin-2(1H)-one]	25.5	48	1.6	70
Cc1c(C2CC2)nc2ccc(-n3ccc(OCc4ccc(Cl)cc4)cc3=O)cn12 [Example 3, 4-((4-Chlorobenzyl)oxy)-1-(2-cyclopropyl-3-methylimidazo[1,2-a]pyridin-6-yl)pyridin-2(1H)-one]	29.6	99	2.4	88
Cn1c(C2CC2)nc2ccc(-n3ccc(OCc4ccc(F)c(F)c4)cc3=O)cc21 [Example 115, 1-(2-Cyclopropyl-1-methyl-1H-benzimidazol-6-yl)-4-((3,4-difluorobenzyl)oxy)pyridin-2(1H)-one]	32	–	1.8	82
